Legend:
[1] = system: ISC-enriched organoids; assay: Primary screen, 384-well 2.5-D organoid differentiation (ENR+CD, 6 days): carbachol-induced lysozyme secretion (LYZ.S); format: cell-based, murine; conditions: for Dose.FC.LYZ.S: primary screen, ENR+CD 6 days, FC vs plate median
Excerpt: (§1) High-throughput screening.

[2] = system: ISC-enriched organoids; assay: Primary screen, 384-well 2.5-D organoid differentiation (ENR+CD, 6 days, Target Selective Inhibitor Library, vs whole-plate median): ATP (CellTiter-Glo 3D, CTG); conditions: for Dose.FC.CTG / Z.CTG: primary screen; for Dose.FC.CTG: ENR+CD 6 days, FC vs plate median; for Z.CTG: standard z score of FC
[3] = system: ISC-enriched organoids; assay: Primary screen, 384-well 2.5-D organoid differentiation (ENR+CD, 6 days): basal lysozyme secretion (LYZ.NS); format: cell-based, murine; conditions: for Dose.FC.LYZ.NS / Z.LYZ.NS: primary screen; for Dose.FC.LYZ.NS: ENR+CD 6 days, FC vs plate median; for Z.LYZ.NS: standard z score of FC
Excerpt: as §1

[4] = dose 0.08 uM (1st of 4 lines per treatment; dose not printed in this part)
[5] = dose 0.40 uM (2nd of 4 lines per treatment; dose not printed in this part)
[6] = dose 2.00 uM (3rd of 4 lines per treatment; dose not printed in this part)
[7] = dose 10.00 uM (4th of 4 lines per treatment; dose not printed in this part)

Row | Compound | SSMD.LYZ.S_Rep (strictly standardized mean difference) [1, 4] | Z.LYZ.S (standard z score) [1, 4] | SSMD.LYZ.S_Rep (strictly standardized mean difference) [1, 5] | Z.LYZ.S (standard z score) [1, 5] | SSMD.LYZ.S_Rep (strictly standardized mean difference) [1, 6] | Z.LYZ.S (standard z score) [1, 6] | SSMD.LYZ.S_Rep (strictly standardized mean difference) [1, 7] | Z.LYZ.S (standard z score) [1, 7] | Dose.FC.LYZ.S ([1]; dose 0.08 uM) | Dose.FC.LYZ.S ([1]; dose 0.40 uM) | Dose.FC.LYZ.S ([1]; dose 2.00 uM) | Dose.FC.LYZ.S ([1]; dose 10.00 uM) | SSMD.CTG_Rep (strictly standardized mean difference) [2, 4] | SSMD.CTG_Rep (strictly standardized mean difference) [2, 5] | SSMD.CTG_Rep (strictly standardized mean difference) [2, 6] | SSMD.CTG_Rep (strictly standardized mean difference) [2, 7] | Dose.FC.CTG ([2]; dose 0.08 uM) | Z.CTG ([2]; dose 0.08 uM) | Dose.FC.CTG ([2]; dose 0.40 uM) | Z.CTG ([2]; dose 0.40 uM) | further results
1 | C=CCNC1=C2C[C@@H](C)C[C@H](OC)[C@H](O)[C@@H](C)/C=C(\C)[C@H](OC(N)=O)[C@@H](OC)/C=C\C=C(/C)C(=O)NC(=CC1=O)C2=O [17-AAG (Tanespimycin)] | −1.387 | −1.826 | −1.428 | −2.199 | −1.462 | −2.219 | −1.655 | −1.975 | −0.282 log 2 fold change | −0.340 log 2 fold change | −0.343 log 2 fold change | −0.306 log 2 fold change | −0.926 | −1.023 | −1.783 | −1.348 | −1.012 log 2 fold change | −2.418 | −1.262 log 2 fold change | −3.015 | Dose.FC.CTG ([2]; dose 2.00 uM): −1.459 log 2 fold change; Z.CTG ([2]; dose 2.00 uM): −3.486; Dose.FC.CTG ([2]; dose 10.00 uM): −1.446 log 2 fold change; Z.CTG ([2]; dose 10.00 uM): −3.454; SSMD.LYZ.NS_Rep (strictly standardized mean difference) [3, 4]: −1.180; SSMD.LYZ.NS_Rep (strictly standardized mean difference) [3, 5]: −1.186; SSMD.LYZ.NS_Rep (strictly standardized mean difference) [3, 6]: −1.053; SSMD.LYZ.NS_Rep (strictly standardized mean difference) [3, 7]: −1.183; Dose.FC.LYZ.NS ([3]; dose 0.08 uM): −0.193 log 2 fold change; Z.LYZ.NS ([3]; dose 0.08 uM): −1.682; Dose.FC.LYZ.NS ([3]; dose 0.40 uM): −0.205 log 2 fold change; Z.LYZ.NS ([3]; dose 0.40 uM): −1.786; Dose.FC.LYZ.NS ([3]; dose 2.00 uM): −0.142 log 2 fold change; Z.LYZ.NS ([3]; dose 2.00 uM): −1.239; Dose.FC.LYZ.NS ([3]; dose 10.00 uM): −0.187 log 2 fold change; Z.LYZ.NS ([3]; dose 10.00 uM): −1.631
2 | CN1CCc2cc3c(cc2[C@H]1[C@@H]1OC(=O)c2c1ccc1c2OCO1)OCO3 [(+)-Bicuculline] | 0.545 | 1.005 | 0.216 | 0.221 | −0.164 | −0.169 | 0.264 | 0.465 | 0.155 log 2 fold change | 0.034 log 2 fold change | −0.026 log 2 fold change | 0.072 log 2 fold change | 0.472 | −0.078 | −0.237 | −0.405 | 0.318 log 2 fold change | 0.760 | −0.029 log 2 fold change | −0.069 | Dose.FC.CTG ([2]; dose 2.00 uM): −0.166 log 2 fold change; Z.CTG ([2]; dose 2.00 uM): −0.396; Dose.FC.CTG ([2]; dose 10.00 uM): −0.132 log 2 fold change; Z.CTG ([2]; dose 10.00 uM): −0.315; SSMD.LYZ.NS_Rep (strictly standardized mean difference) [3, 4]: 0.481; SSMD.LYZ.NS_Rep (strictly standardized mean difference) [3, 5]: 0.106; SSMD.LYZ.NS_Rep (strictly standardized mean difference) [3, 6]: 0.276; SSMD.LYZ.NS_Rep (strictly standardized mean difference) [3, 7]: 0.175; Dose.FC.LYZ.NS ([3]; dose 0.08 uM): 0.092 log 2 fold change; Z.LYZ.NS ([3]; dose 0.08 uM): 0.805; Dose.FC.LYZ.NS ([3]; dose 0.40 uM): 0.013 log 2 fold change; Z.LYZ.NS ([3]; dose 0.40 uM): 0.116; Dose.FC.LYZ.NS ([3]; dose 2.00 uM): 0.031 log 2 fold change; Z.LYZ.NS ([3]; dose 2.00 uM): 0.270; Dose.FC.LYZ.NS ([3]; dose 10.00 uM): 0.020 log 2 fold change; Z.LYZ.NS ([3]; dose 10.00 uM): 0.176
